Laboratory results reported in US4048161A, “7-[α-(Benzimidazol-2-ylcarbonylamino)-arylacetamido]ephalosporins” (Eli Lilly and Company, priority 1976, dated 1977).
Values after ≈ are worked out from the molar mass of the structure shown.

Assays:
Format in all cases: cell-based
Shigella sp. = test: Gradient plate in vitro antibiotic activity (MIC), Shigella sp.; conditions: read-out: Minimum Inhibitory Concentration
Text: (§1) The antibiotic activity of the cephalosporin compounds of this invention is illustrated by the data provided in the following Table of representative compounds. The values in the Table are the minimum inhibitory concentrations (MIC) for the test compounds against the indicated microorganisms. The MIC values were obtained using the gradient plate in vitro method for determining antibiotic activity.

Escherichia coli = test: Gradient plate in vitro antibiotic activity (MIC), Escherichia coli; conditions: read-out: Minimum Inhibitory Concentration
Text: (§2) The values in the Table are the minimum inhibitory concentrations (MIC) for the test compounds against the indicated microorganisms. The MIC values were obtained using the gradient plate in vitro method for determining antibiotic activity.

Klebsiella pneumoniae = test: Gradient plate in vitro antibiotic activity (MIC), Klebsiella pneumoniae; conditions: read-out: Minimum Inhibitory Concentration
Text: as §2

Aerobacter aerogenes = test: Gradient plate in vitro antibiotic activity (MIC), Aerobacter aerogenes; conditions: Klebsiella aerogenes, read-out: Minimum Inhibitory Concentration
Text: as §1

Salmonella heidelberg = test: Gradient plate in vitro antibiotic activity (MIC), Salmonella heidelberg; conditions: Salmonella enterica, read-out: Minimum Inhibitory Concentration
Text: as §2

Pseudomonas aeruginosa = test: Gradient plate in vitro antibiotic activity (MIC), Pseudomonas aeruginosa; conditions: read-out: Minimum Inhibitory Concentration
Text: as §2

Serratia marcescens = test: Gradient plate in vitro antibiotic activity (MIC), Serratia marcescens; conditions: read-out: Minimum Inhibitory Concentration
Text: as §2

[1] = tested on: V41 penicillin resistant Staphylococcus; test: Gradient plate in vitro antibiotic activity (MIC), V41 penicillin resistant Staphylococcus; conditions: read-out: Minimum Inhibitory Concentration
Text: as §1
(§3) 1. Test organisms V41, V32, and V84 are penicillin

[2] = tested on: V32 penicillin resistant Staphylococcus; test: Gradient plate in vitro antibiotic activity (MIC), V32 penicillin resistant Staphylococcus; conditions: read-out: Minimum Inhibitory Concentration
Text: as §1, §3

[3] = tested on: X400 methicillin resistant Staphylococcus; test: Gradient plate in vitro antibiotic activity (MIC), X400 methicillin resistant Staphylococcus; conditions: read-out: Minimum Inhibitory Concentration
Text: as §1
resistant Staphylococcus. X-400 is a methicillin
resistant Staphylococcus.

[4] = tested on: V84 penicillin resistant Staphylococcus; test: Gradient plate in vitro antibiotic activity (MIC), V84 penicillin resistant Staphylococcus; conditions: read-out: Minimum Inhibitory Concentration
Text: as §1, §3

| SMILES | MIC (Shigella sp.) [µg/mL] | MIC (Escherichia coli) [µg/mL] | MIC (Klebsiella pneumoniae) [µg/mL] | MIC (Aerobacter aerogenes) [µg/mL] | MIC (Salmonella heidelberg) [µg/mL] | MIC (Pseudomonas aeruginosa) [µg/mL] | MIC (Serratia marcescens) [µg/mL] | MIC [1] [µg/mL] | MIC [2] [µg/mL] | MIC [3] [µg/mL] | MIC [4] [µg/mL] |
| --- | --- | --- | --- | --- | --- | --- | --- | --- | --- | --- | --- |
| CC(=O)OCC1=C(C(=O)O)N2C(=O)C(NC(=O)C(NC(=O)c3nc4ccccc4[nH]3)c3ccccc3)C2SC1 (centres unmarked) [A] | 15 (≈ 27.3 µM) | 26.5 (≈ 48.2 µM) | 18.5 (≈ 33.7 µM) | 18.3 (≈ 33.3 µM) | 22 (≈ 40 µM) | 25 (≈ 45.5 µM) | 100 (≈ 182 µM) | 4 (≈ 7.28 µM) | 5 (≈ 9.1 µM) | > 20 | 0.6 (≈ 1.09 µM) |
| Cn1nnnc1SCC1=C(C(=O)O)N2C(=O)C(NC(=O)C(NC(=O)c3nc4ccccc4[nH]3)c3ccccc3)C2SC1 (centres unmarked) [B] | 5 (≈ 8.26 µM) | 18.5 (≈ 30.5 µM) | 5 (≈ 8.26 µM) | 8.5 (≈ 14 µM) | 6.5 (≈ 10.7 µM) | 22 (≈ 36.3 µM) | 21.5 (≈ 35.5 µM) | 5 (≈ 8.26 µM) | 7 (≈ 11.6 µM) | > 20 | 0.7 (≈ 1.16 µM) |
| Cn1nnnc1SCC1=C(C(=O)O)N2C(=O)C(NC(=O)C(NC(=O)c3nc4ccccc4[nH]3)c3ccc(O)cc3)C2SC1 (centres unmarked) [C] | 5.5 (≈ 8.85 µM) | 7.5 (≈ 12.1 µM) | 0.9 (≈ 1.45 µM) | 13 (≈ 20.9 µM) | 8 (≈ 12.9 µM) | 10.5 (≈ 16.9 µM) | 20.7 (≈ 33.3 µM) | 0.9 (≈ 1.45 µM) | 0.9 (≈ 1.45 µM) | 60 (≈ 96.5 µM) | 0.8 (≈ 1.29 µM) |
| Cn1nnnc1SCC1=C(C(=O)O)N2C(=O)C(NC(=O)C(NC(=O)c3nc4ccccc4[nH]3)c3cccs3)C2SC1 (centres unmarked) [D] | 4 (≈ 6.54 µM) | 7 (≈ 11.4 µM) | 0.6 (≈ 0.981 µM) | 10 (≈ 16.3 µM) | 7.5 (≈ 12.3 µM) | 14.8 (≈ 24.2 µM) | 14.8 (≈ 24.2 µM) | 0.6 (≈ 0.981 µM) | 0.6 (≈ 0.981 µM) | 19.5 (≈ 31.9 µM) | 0.5 (≈ 0.817 µM) |
| Cc1nnc(SCC2=C(C(=O)O)N3C(=O)C(NC(=O)C(NC(=O)c4nc5ccccc5[nH]4)c4ccc(O)cc4)C3SC2)s1 (centres unmarked) [E] | 10 (≈ 15.7 µM) | 16 (≈ 25.1 µM) | 4.5 (≈ 7.06 µM) | 21.5 (≈ 33.7 µM) | 16 (≈ 25.1 µM) | 18.5 (≈ 29 µM) | 70 (≈ 110 µM) | 4 (≈ 6.27 µM) | 5 (≈ 7.84 µM) | 100 (≈ 157 µM) | 1 (≈ 1.57 µM) |
| NC(=O)OCC1=C(C(=O)O)N2C(=O)C(NC(=O)C(NC(=O)c3nc4ccccc4[nH]3)c3ccc(O)cc3)C2SC1 (centres unmarked) [F] | 19.5 (≈ 34.4 µM) | 55 (≈ 97.1 µM) | 10 (≈ 17.7 µM) | 55 (≈ 97.1 µM) | 19.5 (≈ 34.4 µM) | 19.5 (≈ 34.4 µM) | > 200 | 0.9 (≈ 1.59 µM) | 0.9 (≈ 1.59 µM) | 120 (≈ 212 µM) | 0.8 (≈ 1.41 µM) |
| Cn1c(SCC2=C(C(=O)O)N3C(=O)C(NC(=O)C(NC(=O)c4nc5ccccc5[nH]4)c4ccc(O)cc4)C3SC2)nnc(O)c1=O (centres unmarked) [G] | 6.7 (≈ 10.1 µM) | 11 (≈ 16.5 µM) | 1 (≈ 1.5 µM) | 19.2 (≈ 28.9 µM) | 8.5 (≈ 12.8 µM) | 60 (≈ 90.3 µM) | 41 (≈ 61.7 µM) | 0.8 (≈ 1.2 µM) | 1.8 (≈ 2.71 µM) | > 200 | 0.8 (≈ 1.2 µM) |
